# Assay results published in patent US7144866B2, “Avermectin derivatives” (The Kitasato Institute, priority 2000, dated 2006).
# How the values were obtained:
# artemia salina = assay: Insecticidal model activity against artemia salina (Brine shrimp) larvae in a 96 well microplate, movement graded 0 to 3, MIC; format: cell-based; conditions: concentration required to give Indication 2 (or 3) for artemia salina; incubated at 20° C., observed after 24 and 48 hours
# From the text: (§1) Methods for determining antiparasitic effects of the compounds disclosed by the present invention are explained below.
# (§2) As model insects for simple determination of antiparasitic and insecticidal activities, those insects are desired which can be easily obtained and bred in laboratories, and have no pathogenicity to a human. Caenorhabditis elegans, an unparasitic eelworm widely used in experiments of genetics, was used as a typical steam worm, and artemia salina used as feed for tropical fish and named Brine shrimp, was used instead of insects. […]
# (§3) Each well of a 96 well microplate was filled with the solution of the test compound (methanol as a solvent), and the solvent was removed using a vacuum pump, then 250 μl of the assay medium was added to each wells (the assay medium was prepared by dissolving 7.5 mM sodium hydrogencarbonate, 7.5 mM potassium chloride, 7.5 mM calcium chloride dihydrate and 7.5 mM magnesium sulfate heptahydrate in distilled water and adding 0.01% of lecithin to the solution), and then the microplate was shaken using a microplate mixer for 15 minutes. […] The results were compared to those obtained without addition of the test compound, and evaluated by 4 grades. […]
# Caenorhabditis elegans = assay: Antiparasitic activity against Caenorhabditis elegans in a 96 well microplate, movement graded 0 to 3, MIC; format: cell-based; conditions: concentration required to give Indication 2 (or 3) for caenorhabditis elegans; incubated at 20° C., observed after 24 and 48 hours
# From the text: as §1, §2, §3
compound,measurement,setting,value
"CCC(C)C1O[C@]2(C=C[C@@H]1C)C[C@@H]1CC(C/C=C(\C)[C@@H](OC3C[C@H](OC)[C@@H](OC4C[C@H](OC)[C@@H](O)[C@H](C)O4)[C@H](C)O3)[C@@H](C)/C=C/C=C3\COC4[C@H](O)C(C)=CC(C(=O)O1)[C@]34O)O2 (some centres unmarked) [B1a*, avermectin B1a]",A.S. minimum inhibitory concentration (MIC),artemia salina,0.5 ng/mL
same,C.E. minimum inhibitory concentration (MIC),Caenorhabditis elegans,2 ng/mL
